Reference: patent US7256257B2, “Pentapeptide compounds and uses related thereto” (priority 2001, dated 2007)
pIC50: −log10 of the molar value. Where a SMILES comes first, the peptide text is derived from it. [ ]: non-standard residue; d: D form. The star is where a group is joined. Dolaproine = CO[C@@H]([C@@H]1CCCN1)[C@@H](C)C(=O)O; Dil = CC[C@H](C)[C@H](NC)[C@@H](CC(=O)O)OC; NMe2Val = CC(C)[C@@H](C(=O)*)N(C)C; dPhe(ol) = N[C@@H](CO)Cc1ccccc1; Phe(ol) = N[C@H](CO)Cc1ccccc1

Experiments:
[1] = tested on: Kato III human gastric carcinoma cells; assay: In vitro cytotoxicity, 3H-thymidine incorporation, Kato III cells; type: cell-based; details: exposed 1-2 hours, 3H-thymidine incorporation 72 hours later
Protocol: (§1) To obtain the results shown in Table 4, the cells were exposed to drugs for 1-2 hours, and the cytotoxic effects were determined 72 hours later by the incorporation of ^3H-thymidine into DNA. Antigen expression was determined by flow cytometry and is expressed in terms of mean fluorescence intensity (MFI).
(§2) The cytotoxic effects of the mAb-S-36 conjugates on L2987 human lung adenocarcinoma cells (strongly BR96 antigen positive, weakly S2C6 antigen positive) and on Kato III human gastric carcinoma cells, (strongly BR96 antigen positive, S2C6 antigen negative) are shown in FIGS. 18A, 18B and 18C. These figures show the in vitro cytotoxicity of drugs and mAb-drug conjugates on (FIG. 18A) and (FIG. 18B) L2987 human lung adenoma cells, and (FIG. 18A) and (FIG. 18C) Kato III human gastric carcinoma cells. L2987 cells are positive for the antigens recognized by BR96 (LeY) and S2C6 (CD40), but express the LeY antigen at higher levels. Kato III cells are positive for the LeY antigen and negative for CD40. Cells were exposed to the conjugates for 2 hours, washed, and the cytotoxic effects were determined 3 days later using a thymidine incorporation assay.

[2] = tested on: Karpas 299 (ALCL); assay: In vitro cytotoxicity, XTT, Karpas 299 cells; type: cell-based; details: exposed 2 hr, washed, XTT 96 hr later
Protocol: (§3) In vitro cytotoxicity experiments were performed to compare the activities of auristatin E (29a) and drugs of this invention. 3396 and Karpas cells were exposed to the drug for 1 and 2 hr respectively. The cells were washed, and cytotoxicity was determined 96 hr later using XTT to measure mitochondrial integrity.

[3] = tested on: L2987 human lung adenocarcinoma cells; assay: In vitro cytotoxicity, 3H-thymidine incorporation, L2987 cells; type: cell-based; details: for pIC50: L2987 lung, exposed 1-2 hours, 3H-thymidine incorporation 72 hours later
Protocol: as §1, §2
(§4) These figures show the cytotoxic effects of auristatin E and auristatin E-containing conjugates on L2987 human lung adenocarcinoma cells (FIG. 19A); and various hematologic cell lines treated with AC10-S-40a (FIG. 19B). In all assays, cells were exposed to the drugs for 2 hours, washed, and the cytotoxic activities were measured 72 hours later using ^3H-thymidine incorporation.

[4] = tested on: Karpas anaplastic large cell lymphoma; assay: In vitro cytotoxicity, 3H-thymidine incorporation, Karpas cells; type: cell-based; details: Karpas ALCL; exposed 1-2 hours, 3H-thymidine incorporation 72 hours later
Protocol: as §1, §4

[5] = tested on: IM-9 (Multiple myeloma); assay: In vitro cytotoxicity, 3H-thymidine incorporation, IM-9 cells; type: cell-based; details: exposed 1-2 hours, 3H-thymidine incorporation 72 hours later
Protocol: as §1, §4

[6] = tested on: Daudi Burkitt's lymphoma cells; assay: In vitro cytotoxicity, 3H-thymidine incorporation, Daudi cells; type: cell-based; details: for pIC50: Daudi Burkitt's lymphoma, exposed 1-2 hours, 3H-thymidine incorporation 72 hours later
Protocol: as §1, §4

[7] = tested on: L428 Hodgkin's lymphoma; assay: In vitro cytotoxicity, 3H-thymidine incorporation, L428 cells; type: cell-based; details: 3H-thymidine incorporation 72 hours later
Protocol: as §1, §4

[8] = tested on: 3396 human breast carcinoma cells; assay: In vitro cytotoxicity, XTT, 3396 cells; type: cell-based; details: 3396 breast, exposed 1 hr, washed, XTT 96 hr later
Protocol: as §3

[9] = tested on: L540 Hodgkin's lymphoma; assay: In vitro cytotoxicity, 3H-thymidine incorporation, L540 cells; type: cell-based; details: 3H-thymidine incorporation 72 hours later
Protocol: as §1, §4

[10] = tested on: AU565 (breast); assay: In vitro cytotoxicity, 3H-thymidine incorporation, AU565 cells; type: cell-based; details: exposed 1-2 hours, 3H-thymidine incorporation 72 hours later
Protocol: as §1

[11] = tested on: SKBR3 (breast); assay: In vitro cytotoxicity, 3H-thymidine incorporation, SKBR3 cells; type: cell-based; details: 3H-thymidine incorporation 72 hours later
Protocol: as §1

[12] = tested on: purified esterases from guinea pig livers; assay: Exposure to purified liver esterases (guinea pig); type: in vitro ADME; details: prolonged exposure
[13] = tested on: purified esterases from human livers; assay: Exposure to purified liver esterases (human); type: in vitro ADME; details: prolonged exposure
[14] = tested on: purified esterases from rabbit livers; assay: Exposure to purified liver esterases (rabbit); type: in vitro ADME; details: prolonged exposure
[15] = tested on: purified esterases from rhesus monkey livers; assay: Exposure to purified liver esterases (rhesus monkey); type: in vitro ADME; details: prolonged exposure
[16] = Stability in human serum; type: in vitro ADME; details: 120 hours incubation at 37 C
[17] = Homo sapiens, Breast carcinoma cell

Compound: CC[C@H](C)[C@@H]([C@@H](CC(=O)N1CCC[C@H]1[C@H](OC)[C@@H](C)C(=O)N[C@H](C)[C@@H](O)c1ccccc1)OC)N(C)C(=O)[C@@H](NC(=O)[C@H](C(C)C)N(C)C)C(C)C [Compound 29a, N,N-dimethyl-L-valyl-N-[(1S,2R)-4-[(2S)-2-[(1R,2R)-3-[[(1R,2S)-2-hydroxy-1-methyl-2-phenylethyl]amino]-1-methoxy-2-methyl-3-oxopropyl]-1-pyrrolidinyl]-2-methoxy-1-[(1S)-1-methylpropyl]-4-oxobutyl]-N-methyl-L-valinamide, reference compound]
- pIC50 ([1]; Homo sapiens): 9.15
- pIC50 ([2]; Homo sapiens): 8.92
- pIC50 ([3]; Homo sapiens): 9.00
- pIC50 [4]: 8.92
- pIC50 ([5]; Homo sapiens): 8.46
- pIC50 ([6]; Homo sapiens): 9.05
- pIC50 ([7]; Homo sapiens, L-428, exposed 1-2 hours): 8.82
- pIC50 [8, 17]: 8.22
- pIC50 ([9]; Homo sapiens, L-540, exposed 1-2 hours): 8.82
- pIC50 ([10]; Homo sapiens): 8.82
- pIC50 ([11]; Homo sapiens, SK-BR-3, exposed 1-2 hours): 8.82

Compound: CC[C@H](C)[C@@H]([C@@H](CC(=O)N1CCC[C@H]1[C@H](OC)[C@@H](C)C(=O)N[C@H](CO)Cc1ccccc1)OC)N(C)C(=O)[C@@H](NC(=O)[C@H](C(C)C)N(C)C)C(C)C [Compound 32] (NMe2Val-V[Dil][Dolaproine][Phe(ol)])
- pIC50 [8, 17]: 8.35

Compound: CC[C@H](C)[C@@H]([C@@H](CC(=O)N1CCC[C@H]1[C@H](OC)[C@@H](C)C(=O)N[C@@H](CO)Cc1ccccc1)OC)N(C)C(=O)[C@@H](NC(=O)[C@H](C(C)C)N(C)C)C(C)C [Compound 33] (NMe2Val-V[Dil][Dolaproine][dPhe(ol)])
- pIC50 [8, 17]: 7.15

Compound: CC[C@H](C)[C@@H]([C@@H](CC(=O)N1CCC[C@H]1[C@H](OC)[C@@H](C)C(=O)N[C@@H](C)[C@H](OC(=O)c1ccc(C(C)=O)cc1)c1ccccc1)OC)N(C)C(=O)[C@@H](NC(=O)[C@H](C(C)C)N(C)C)C(C)C [Compound 39a, 4-acetyl-benzoic Ester of Auristatin E]
- conversion to auristatin E (29a) by liver esterases [12]: failed to demonstrate any conversion
- conversion to auristatin E (29a) by liver esterases [13]: failed to demonstrate any conversion
- pIC50 [1]: 8.30
- pIC50 [2]: 8.40
- cytotoxicity relative to auristatin E (29a) ([3]; L2981 cells (so in the source)): as cytotoxic as auristatin E (29a)
- pIC50 [3]: 9.05
- pIC50 [4]: 7.89
- pIC50 [5]: 7.30
- conversion to auristatin E (29a) by liver esterases [14]: failed to demonstrate any conversion
- times less cytotoxic than auristatin E (29a) ([6]; Daudi Burkitt's lymphoma cells): approximately 17 times
- pIC50 [6]: 7.82
- pIC50 ([7]; exposed 1-2 hours): 7.89
- pIC50 [8]: 7.80
- pIC50 ([9]; exposed 1-2 hours): 7.80
- conversion to auristatin E (29a) by liver esterases [15]: failed to demonstrate any conversion
- hydrolysis in human serum [16]: no detectable hydrolysis
- pIC50 [10]: 8.22
- pIC50 ([11]; exposed 1-2 hours): 8.22

Compound: CC[C@H](C)[C@@H]([C@@H](CC(=O)N1CCC[C@H]1[C@H](OC)[C@@H](C)C(=O)N[C@H](COC(=O)c1ccc(C(C)=O)cc1)Cc1ccccc1)OC)N(C)C(=O)[C@@H](NC(=O)[C@H](C(C)C)N(C)C)C(C)C [Compound 47]
- pIC50 ([2]; Homo sapiens): 10.12
- pIC50 [8, 17]: 9.46

Compound: CC[C@H](C)[C@@H]([C@@H](CC(=O)N1CCC[C@H]1[C@H](OC)[C@@H](C)C(=O)N[C@@H](COC(=O)c1ccc(C(C)=O)cc1)Cc1ccccc1)OC)N(C)C(=O)[C@@H](NC(=O)[C@H](C(C)C)N(C)C)C(C)C [Compound 49]
- pIC50 [8, 17]: 7.47

Compound: CC[C@H](C)[C@@H]([C@@H](CC(=O)N1CCC[C@H]1[C@H](OC)[C@@H](C)C(=O)N[C@H](C)[C@@H](OC(=O)CCCCC(=O)c1ccccc1)c1ccccc1)OC)N(C)C(=O)[C@@H](NC(=O)[C@H](C(C)C)N(C)C)C(C)C [Compound 50, 5-benzoylvaleric Ester of Auristatin E]
- pIC50 [8, 17]: 8.52

Compound: CO[C@H]([C@@H](C)C(=O)N[C@H](C)[C@@H](OC(=O)CC(C)=O)c1ccccc1)[C@@H]1CCCN1C(=O)C[C@@H](OC)[C@H](C)N(C)C(=O)[C@@H](NC(=O)[C@H](C(C)C)N(C)C)C(C)C [Compound 52, Acetoacetic Ester of Auristatin E]
- pIC50 [8, 17]: 7.70

Compound: CC[C@H](C)[C@@H]([C@@H](CC(=O)N1CCC[C@H]1[C@H](OC)[C@@H](C)C(=O)N[C@H](COc1ccc(C(C)=O)cc1)Cc1ccccc1)OC)N(C)C(=O)[C@@H](NC(=O)[C@H](C(C)C)N(C)C)C(C)C [Compound 58]
- pIC50 [8, 17]: 8.60
